Like-named read-outs stand apart in the source and are kept apart here.
Experiments:
RAF kinases [1] = molecular target: T1, RAF kinases (Homo sapiens, UniProt P15056, V600E); assay: biochemical
RAF kinases [2] = molecular target: RAF kinases (Homo sapiens, UniProt P15056); conditions: read-out: BRAF WT Kd; BRAF WT
RAF kinases [3] = molecular target: RAF kinases (Homo sapiens, UniProt P04049); conditions: read-out: RAF1 Kd; RAF1
[4] = system: MEK1 phosphorylation in the A375 human melanoma cell line; assay: cells; conditions: A-375, read-out: pMEK IC50
RAF kinases [5] = molecular target: T1, RAF kinases; conditions: read-out: BRAF V600E Kd; BRAF V600E
A375 cells = assay: cells; conditions: Homo sapiens, A-375, read-out: A375 Viability EC50

Sequence of RAF kinases (Homo sapiens, UniProt P04049) (P04049 whole entry): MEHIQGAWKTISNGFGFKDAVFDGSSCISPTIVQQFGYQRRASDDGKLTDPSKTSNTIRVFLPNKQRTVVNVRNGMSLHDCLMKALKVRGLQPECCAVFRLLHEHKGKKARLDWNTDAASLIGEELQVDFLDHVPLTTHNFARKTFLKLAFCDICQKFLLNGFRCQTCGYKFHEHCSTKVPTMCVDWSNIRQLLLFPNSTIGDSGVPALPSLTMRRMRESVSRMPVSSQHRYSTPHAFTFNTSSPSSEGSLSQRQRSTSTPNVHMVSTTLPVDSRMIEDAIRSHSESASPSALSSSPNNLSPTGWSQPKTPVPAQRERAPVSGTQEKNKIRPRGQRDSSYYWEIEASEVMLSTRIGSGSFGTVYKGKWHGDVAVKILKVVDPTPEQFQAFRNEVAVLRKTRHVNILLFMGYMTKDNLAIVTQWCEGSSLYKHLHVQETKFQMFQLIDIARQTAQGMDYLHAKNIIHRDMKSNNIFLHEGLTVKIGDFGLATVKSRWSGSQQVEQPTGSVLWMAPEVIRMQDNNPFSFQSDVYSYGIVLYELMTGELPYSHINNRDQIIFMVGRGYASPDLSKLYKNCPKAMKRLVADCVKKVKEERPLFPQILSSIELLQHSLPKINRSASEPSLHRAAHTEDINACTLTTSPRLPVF
T1 sequence (P15056 whole entry V600E): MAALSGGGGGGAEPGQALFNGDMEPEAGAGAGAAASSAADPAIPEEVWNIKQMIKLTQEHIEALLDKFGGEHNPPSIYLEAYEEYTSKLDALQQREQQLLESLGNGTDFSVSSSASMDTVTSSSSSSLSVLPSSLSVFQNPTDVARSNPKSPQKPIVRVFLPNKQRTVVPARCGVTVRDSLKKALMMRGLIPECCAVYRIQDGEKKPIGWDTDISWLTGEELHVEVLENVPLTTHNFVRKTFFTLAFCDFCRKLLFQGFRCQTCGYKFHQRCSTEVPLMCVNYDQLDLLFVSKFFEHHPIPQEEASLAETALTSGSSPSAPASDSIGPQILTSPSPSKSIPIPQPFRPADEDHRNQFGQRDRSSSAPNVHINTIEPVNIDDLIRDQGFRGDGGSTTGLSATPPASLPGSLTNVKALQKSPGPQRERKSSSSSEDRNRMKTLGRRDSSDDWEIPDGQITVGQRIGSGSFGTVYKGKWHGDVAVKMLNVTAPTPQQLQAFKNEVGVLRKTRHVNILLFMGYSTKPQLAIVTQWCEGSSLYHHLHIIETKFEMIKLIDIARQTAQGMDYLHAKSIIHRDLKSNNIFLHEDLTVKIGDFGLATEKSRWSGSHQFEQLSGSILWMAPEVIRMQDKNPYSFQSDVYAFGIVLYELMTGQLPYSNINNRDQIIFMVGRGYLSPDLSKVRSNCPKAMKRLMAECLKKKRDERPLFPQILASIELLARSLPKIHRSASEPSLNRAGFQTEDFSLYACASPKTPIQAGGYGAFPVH
Sequence of RAF kinases (Homo sapiens, UniProt P15056) (P15056 whole entry): as the sequence (P15056 whole entry V600E) above, with E600V counted along it

Compound | Kd (RAF kinases [1]) [nM] | Kd (RAF kinases [2]) [nM] | Kd (RAF kinases [3]) [nM] | IC50 [4] [nM] | Kd (RAF kinases [5]) [nM] | EC50 (A375 cells) [nM]
COc1cc2ncnc(Oc3cc(NC(=O)Nc4cc(C(C)(C)C)nn4-c4ccc(C)cc4)c(F)cc3F)c2cc1OC [Ex 272, 1-(3-tert-butyl-1-p-tolyl-1H-pyrazol-5-yl)-3-(5-(6,7-dimethoxyquinazolin-4-yloxy)-2,4-difluorophenyl)urea] | 500 to 1000 | > 1000 | > 1000 | < 250 | – | –
COc1cc2ncnc(Oc3cc(NC(=O)Nc4cc(C(C)(C)C)nn4-c4ccccc4)c(F)cc3F)c2cc1OC [Ex 273, 1-(3-tert-butyl-1-phenyl-1H-pyrazol-5-yl)-3-(5-(6,7-dimethoxyquinazolin-4-yloxy)-2,4-difluorophenyl)urea] | 500 to 1000 | > 1000 | > 1000 | < 250 | – | –
COc1cc2ncnc(Oc3cccc(NC(=O)Nc4cc(C(C)(C)C)nn4-c4ccc(C)cc4)c3)c2cc1OC [Ex 274, 1-(3-tert-butyl-1-p-tolyl-1H-pyrazol-5-yl)-3-(3-(6,7-dimethoxyquinazolin-4-yloxy)phenyl)urea] | 250 to 500 | > 1000 | > 1000 | < 250 | – | –
COc1cc2ncnc(Sc3cccc(NC(=O)Nc4cc(C(C)(C)C)nn4-c4ccc(C)cc4)c3)c2cc1OC [Ex 275, 1-(3-tert-butyl-1-p-tolyl-1H-pyrazol-5-yl)-3-(3-(6,7-dimethoxyquinazolin-4-ylthio)phenyl)urea] | 250 to 500 | > 1000 | > 1000 | < 250 | – | –
COc1cc2ncnc(Oc3cccc(NC(=O)Nc4cc(C(C)(C)C)nn4-c4ccc(C)cc4C)c3)c2cc1OC [Ex 282, 1-(3-tert-butyl-1-(2,4-dimethylphenyl)-1H-pyrazol-5-yl)-3-(3-(6,7-dimethoxyquinazolin-4-yloxy)phenyl)urea] | 500 to 1000 | > 1000 | > 1000 | < 250 | – | –
COc1cc2ncnc(Oc3cccc(NC(=O)Nc4cc(C(C)(C)C)nn4-c4cccc(C)c4)c3)c2cc1OC [Ex 285, 1-(3-tert-butyl-1-m-tolyl-1H-pyrazol-5-yl)-3-(3-(6,7-dimethoxyquinazolin-4-yloxy)phenyl)urea] | 250 to 500 | > 1000 | > 1000 | < 250 | – | –
COc1cc2ncnc(Sc3cccc(NC(=O)Nc4cc(C(C)(C)C)nn4-c4cccc(C)c4)c3)c2cc1OC [Ex 286, 1-(3-tert-butyl-1-m-tolyl-1H-pyrazol-5-yl)-3-(3-(6,7-dimethoxyquinazolin-4-ylthio)phenyl)urea] | 250 to 500 | > 1000 | > 1000 | < 250 | – | –
COCCOc1cc2ncnc(Sc3cccc(NC(=O)Nc4cc(C(C)(C)C)nn4-c4cccc(C)c4)c3)c2cc1OC [Ex 287, 1-(3-tert-butyl-1-m-tolyl-1H-pyrazol-5-yl)-3-(3-(6-methoxy-7-(2-methoxyethoxy)quinazolin-4-ylthio)phenyl)urea] | 500 to 1000 | > 1000 | > 1000 | < 250 | – | –
COc1cc2ncnc(Oc3cccc(NC(=O)Nc4cc(C(C)(C)C)nn4-c4ccc(C)cc4)c3C)c2cc1OC [Ex 288, 1-(3-tert-butyl-1-p-tolyl-1H-pyrazol-5-yl)-3-(3-(6,7-dimethoxyquinazolin-4-yloxy)-2-methylphenyl)urea] | 250 to 500 | > 1000 | > 1000 | < 250 | – | –
COc1cc2ncnc(Sc3cccc(NC(=O)Nc4cc(C(C)(C)C)nn4-c4cccc(F)c4)c3)c2cc1OC [Ex 360, 1-(3-tert-butyl-1-(3-fluorophenyl)-1H-pyrazol-5-yl)-3-(3-(6,7-dimethoxyquinazolin-4-ylthio)phenyl)urea] | 250 to 500 | > 1000 | > 1000 | < 250 | – | –
COc1ccc(-n2nc(C(C)(C)C)cc2NC(=O)Nc2cccc(Sc3ncnc4cc(OC)c(OC)cc34)c2)cc1 [Ex 362, 1-(3-tert-butyl-1-(4-methoxyphenyl)-1H-pyrazol-5-yl)-3-(3-(6,7-dimethoxyquinazolin-4-ylthio)phenyl)urea] | 500 to 1000 | > 1000 | > 1000 | < 250 | – | –
COc1cc2ncnc(Oc3cccc(NC(=O)Nc4cc(C(C)(C)C)nn4-c4ccc(Cl)cc4)c3)c2cc1OC [Ex 365, 1-(3-tert-butyl-1-(4-chlorophenyl)-1H-pyrazol-5-yl)-3-(3-(6,7-dimethoxyquinazolin-4-yloxy)phenyl)urea] | 250 to 500 | > 1000 | > 1000 | < 250 | – | –
COc1cc2ncnc(Sc3cccc(NC(=O)Nc4cc(C(C)(C)C)nn4-c4ccc(Cl)cc4)c3)c2cc1OC [Ex 366, 1-(3-tert-butyl-1-(4-chlorophenyl)-1H-pyrazol-5-yl)-3-(3-(6,7-dimethoxyquinazolin-4-ylthio)phenyl)urea] | 250 to 500 | > 1000 | > 1000 | < 250 | – | –
COc1cc2ncnc(Oc3ccc(F)c(NC(=O)Nc4cc(C(C)(C)C)nn4-c4ccccc4)c3)c2cc1OC [Ex 368, 1-(3-tert-butyl-1-phenyl-1H-pyrazol-5-yl)-3-(5-(6,7-dimethoxyquinazolin-4-yloxy)-2-fluorophenyl)urea] | 500 to 1000 | > 1000 | > 1000 | < 250 | – | –
COc1cc2ncnc(Oc3cccc(NC(=O)Nc4cc(C5(C(F)(F)F)CC5)on4)c3)c2cc1OC [Ex 377, 1-(3-(6,7-dimethoxyquinazolin-4-yloxy)phenyl)-3-(5-(1-(trifluoromethyl)cyclopropyl)isoxazol-3-yl)urea] | – | < 250 | < 250 | < 250 | < 250 | < 250
COc1cc2ncnc(Sc3cccc(NC(=O)Nc4cc(C5(C(F)(F)F)CC5)on4)c3)c2cc1OC [Ex 378, 1-(3-(6,7-dimethoxyquinazolin-4-ylthio)phenyl)-3-(5-(1-(trifluoromethyl)cyclopropyl)isoxazol-3-yl)urea] | – | < 250 | < 250 | 250 to 500 | < 250 | < 250
COc1cc2ncnc(Sc3cccc(NC(=O)Nc4cc(C(F)(F)F)no4)c3)c2cc1OC [Ex 382, 1-(3-(6,7-dimethoxyquinazolin-4-ylthio)phenyl)-3-(3-(trifluoromethyl)isoxazol-5-yl)urea] | – | < 250 | < 250 | > 1000 | < 250 | > 1000
CCOc1cc2ncnc(Oc3cccc(NC(=O)Nc4cc(C(C)(C)F)no4)c3)c2cc1OC [Ex 385, 1-(3-(7-ethoxy-6-methoxyquinazolin-4-yloxy)phenyl)-3-(3-(2-fluoropropan-2-yl)isoxazol-5-yl)urea] | – | < 250 | < 250 | 250 to 500 | < 250 | 250 to 500
CCOc1cc2ncnc(Oc3cccc(NC(=O)Nc4cc(C(C)(CF)CF)on4)c3)c2cc1OC [Ex 386, 1-(5-(1,3-difluoro-2-methylpropan-2-yl)isoxazol-3-yl)-3-(3-(7-ethoxy-6-methoxyquinazolin-4-yloxy)phenyl)urea] | – | < 250 | < 250 | < 250 | < 250 | < 250
CCOc1cc2ncnc(Sc3cccc(NC(=O)Nc4cc(C(C)(C)F)no4)c3)c2cc1OC [Ex 389, 1-(3-(7-ethoxy-6-methoxyquinazolin-4-ylthio)phenyl)-3-(3-(2-fluoropropan-2-yl)isoxazol-5-yl)urea] | – | < 250 | < 250 | 500 to 1000 | < 250 | 250 to 500
CCOc1cc2c(Oc3cccc(NC(=O)Nc4cc(C(C)(C)F)no4)c3)ncnc2cc1OC [Ex 392, 1-(3-(6-ethoxy-7-methoxyquinazolin-4-yloxy)phenyl)-3-(3-(2-fluoropropan-2-yl)isoxazol-5-yl)urea] | – | < 250 | < 250 | < 250 | < 250 | < 250
CCOc1cc2c(Oc3cccc(NC(=O)Nc4cc(C(C)(CF)CF)on4)c3)ncnc2cc1OC [Ex 393, 1-(5-(1,3-difluoro-2-methylpropan-2-yl)isoxazol-3-yl)-3-(3-(6-ethoxy-7-methoxyquinazolin-4-yloxy)phenyl)urea] | – | < 250 | < 250 | < 250 | < 250 | < 250
CCOc1cc2c(Sc3cccc(NC(=O)Nc4cc(C(C)(C)F)no4)c3)ncnc2cc1OC [Ex 394, 1-(3-(6-ethoxy-7-methoxyquinazolin-4-ylthio)phenyl)-3-(3-(2-fluoropropan-2-yl)isoxazol-5-yl)urea] | – | < 250 | < 250 | < 250 | < 250 | 250 to 500
CCOc1cc2c(Sc3cccc(NC(=O)Nc4cc(C(C)(CF)CF)on4)c3)ncnc2cc1OC [Ex 395, 1-(5-(1,3-difluoro-2-methylpropan-2-yl)isoxazol-3-yl)-3-(3-(6-ethoxy-7-methoxyquinazolin-4-ylthio)phenyl)urea] | – | < 250 | < 250 | < 250 | < 250 | < 250
CCc1cc(NC(=O)Nc2cccc(Sc3ncnc4cc(OC)c(OC)cc34)c2)n(-c2ccccc2)n1 [Ex 399, 1-(3-(6,7-dimethoxyquinazolin-4-ylthio)phenyl)-3-(3-ethyl-1-phenyl-1H-pyrazol-5-yl)urea] | – | < 250 | < 250 | 250 to 500 | < 250 | 250 to 500
CCOc1cc2ncnc(Sc3cccc(NC(=O)Nc4cc(C(C)(CF)CF)on4)c3)c2cc1OC [Example 388, 1-(5-(1,3-difluoro-2-methylpropan-2-yl)isoxazol-3-yl)-3-(3-(7-ethoxy-6-methoxyquinazolin-4-ylthio)phenyl)urea] | – | < 250 | < 250 | 250 to 500 | < 250 | 250 to 500
